Experimental data: patent US20140004079A1, “IN VIVO DENDRITIC CELL T[…]” (Agency for Science, Technology and Research, priority 2012, published 2014)
“Also recorded” adds a separate entry of the source.

Legend:
Type in all cases: cell-based, human
[1] = tested on: sorted APC populations from chronic HBV patients; test: Ex vivo antigen presentation assay: sorted APCs activated overnight, co-cultured with HBsAg-specific TCR redirected T cells, IFN-γ Elispot; conditions: for cross-presentation of circulating HBsAg (T cell activation): mDC, CD14 MN, CD16 MN or B cells of chronic HBV patients, short-term activation, HBsAg-specific TCR transduced T cells
Protocol: Sorted APC populations; CD11c DC, CD141 DC, CD123 pDC, CD14 MN, CD16 MN and CD20 B cells were cultured overnight in media alone or under activating conditions +/−[…] recombinant HBsAg (Kindly provided by DynaVax). Cells were activated with 10 μg/ml polyI:C (TLR-3), 5 μM CpG ODN2216 (TLR-9), 1 μg/ml LPS (TLR-4), 5 μg/ml Imiquimod (TLR-7), 1 μg/ml ssRNA40 (TLR-8) (InvivoGen), 1000 U/ml IFN-α or 1000 U/ml IFN-γ (R&D systems). Following overnight incubation, APC populations were thoroughly washed and transferred to anti-IFN-γ coated Elispot plates and co-cultured with CD8 s183-TCR or s171-TCR redirected T cells at 5:1 E:T ratio (normally 5,000 APCs/well but as low as 1000 CD141 DC/well) for 24 h. APCs pulsed with 5 μg/ml HBs183-91(FLLTRILTI), HBs171-80 (FLGPLLVLQA) or HBc18-27 ([…]) peptide served as positive control for T cell activation. IFN-γ Elispot was performed as described previously in Tan et al 2008, using 5 μg/ml of 1-DIK for capture and 0.5 μg/ml 7B6-1-Biotin plus Streptavidin-ALP for detection (Mabtec) (Tan, A. T, Loggi, E., Boni, C., Chia, A. Gehring, A. J., Sastry, K. S., Goh, V., Fisicaro, P., Andreone, P., Brander, C., et al. 2008. Host ethnicity and virus genotype shape the hepatitis B virus-specific T-cell repertoire. J. Virol 82: 10986-10997). Elispot plates were developed and analyzed using CTL Immunospot analyzer. Cutoff values for positive responses were set according to cumulative data from healthy donors and HLA mismatched chronic HBV responses (data not shown). Wells were considered positive if responses were above 20 spot forming units/50,000 T cells.
APC populations were sorted from 7 HLA-A2+ chronic HBV patients or healthy donors to greater than 98% purity. TCR transduced T cells were then cultured at 5:1 effector:target ratio with each APC population (typically 5,000 APC/well for Elispot and 10,000 APC/well for intracellular cytokine staining) and T cell activation was monitored using IFN-γ intracellular cytokine staining or IFN-γ Elispot. For intracellular cytokine staining, cells were co-cultured overnight in V-bottom 96 well plates in 2 μg/ml brefeldin A. Cells were labeled with viability dye, stained with CD8-Horizon V500 (BD Biosciences) and fixed in cytofix/cytoperm (BD Biosciences). Cells were then stained with IFN-γ-Horizon V450 (BD Biosciences) to monitor T cell activation. As positive control, CD14 MN were pulsed with 5 μg/ml HBs183-91 or HBc18-27 peptide for 1 h and washed. IFN-γ Elispot was performed as described previously using 5 μg/ml of 1-DK1 for capture and 0.5 μg/ml 7B6-1-Biotin plus Streptavidin-ALP for detection (Mabtec). Wells were considered positive if responses were above 20 spot forming units/25,000 T cells. An HLA-A2+ healthy donor was included in each experiment to determine the background for each experiment. HLA-A2− donors were also tested to confirm specificity and restriction of the transduced T cells (data not shown).

healthy donor CD14 MN = test: Cross-presentation by healthy donor CD14 MN loaded with HBV antigen at day zero and differentiated to moDC, IFN-γ elispot; conditions: differentiation alone, antigen captured on day zero
Protocol: (§1) CD14+ MN were isolated from healthy donors and chronic HBV patients by FACs sorting or positive selection using CD14 micobeads (greater than 90% purity; Miltenyi Biothech). Purified monocytes were then cultured in RPMI 1640 supplemented with 10% heat-inactivated FBS, 20 mM HEPES, 0.5 mM sodium pyruvate. 100 U/ml penicillin, 100 μg/ml streptomycin, MeM amino acids, Glutamax, MeM nonessential amino acids, 55 μM 2-mercaptoethanol (Invitrogen). GM-CSF+IL-4 moDC were made by culturing CD14 MN in 50 ng/ml (1500 U/ml) IL-4 and 50 ng/ml (750 U/ml) GM-CSF (R&D systems) for 6 d. GM-CSF+IL-15 (R&D Systems) moDC were made by culturing CD14 MN in 100 ng/ml (1500 U/ml) GM-CSF+200 ng/ml IL-15. Half of the media was removed after 3 d and replaced with complete RPMI containing cytokines. After 6 d of incubation, moDC were stained with CD14-PerCp (Miltenyi Biotech), HLA-DR alexa700 (eBioscience), CD80-FITC (BD Bioscience) and CD86-APC (Biolegend) to confirm differentiation.
(§2) Six day moDC were cultured overnight in media alone or activated with 10 μg/ml polyI:C or 0.1 ug/ml LPS (Invivogen)+50 ng/ml soluble HEK-derived CD40L (R&D Systems). Following overnight incubation, moDC were washed three times with HBSS and co-cultured at 2:1 effector:target ratio (10,000 T cells:5000 moDC) with CD8 HBs183-91T or HBs171-80-specific TCR redirected T cells for IFN-γ elispot. […]

[2] = tested on: CD14 MN from chronic HBV patients; test: Cross-presentation of in vivo captured HBsAg by monocyte-derived DC from chronic HBV patients, IFN-γ elispot; conditions: moDC activated overnight, s183-TCR and s171-TCR CD8 T cells
Protocol: as §1, §2

Molecule: IFN-γ: cytokine, 1000 U/ml for APC activation
- cross-presentation of circulating HBsAg (T cell activation) [1]: T cell activation was not observed

Molecule: interferon-α [IFN-α]
- cross-presentation of circulating HBsAg (T cell activation) [1]: T cell activation was not observed
- activation of HBsAg-specific T cells by activated pDC ex vivo ([1]; pDC of chronic HBV patients, in vivo captured HBsAg): Neither resting pDC nor pDC activated with a panel of TLR ligands and IFN-α activated HBsAg-specific T cells; also recorded: none of these conditions resulted in HBsAg-specific T cell activation

Molecule: granulocyte-macrophage colony-stimulating factor [GM-CSF]
- cross-presentation of HBV antigen to virus-specific CD8 T cells after differentiation (healthy donor CD14 MN; 3 d): resulted in cross-presentation of HBV antigen

Molecule: Polyinosinic-polycytidylic acid [polyI:C, reference compound]
- cross-presentation of exogenously loaded recombinant HBsAg by CD141 DC ([1]; CD141 DC loaded with rHBsAg and stimulated): efficiently cross-presented recombinant HBsAg
- activation of CD8 T cells by activated CD141 DC directly ex vivo ([1]; CD141 DC of chronic HBV patients, in vivo captured HBsAg): neither non-activated nor polyI:C activated CD141 DC from chronic HBV patients stimulated CDS T cells; also recorded: neither non-activated nor polyI:C activated CD141 DC from chronic HBV patients activated CD8 T cells
- effect of moDC activation on T cell response [2]: increase the T cell response

B1: IL-32: cytokine, 100 ng/ml IL-32 for 6 d (protein, UniProt P24001 31-234, looked up)
Interleukin-32: AWVSACDTEDTVGHLGPWRDKDPALWCQLCLSSQHQAIERFYDKMQNAESGRGQVMSSLAELEDDFKEGYLETVAAYYEEQHPELTPLLEKERDGLRCRGNRSPVPDVEDPATEEPGESFCDKVMRWFQAMLQRLQTWWHGVLAWVKEKVVALVHAVQALWKQFQSFCCSLSELFMSSFQSYGAPRGDKEELTPQKCSEPQSSK
- cross-presentation of HBV antigen to virus-specific CD8 T cells after differentiation (healthy donor CD14 MN; 6 d): resulted in cross-presentation of HBV antigen
